These results are taken from patent US20110092367A1, “Herbicidal Compositions Comprising 4-amino-3,6-dichloropyridine-2-carboxylic Acid” (BASF SE, priority 2008, published 2011).

Assay type in all cases: in vivo
The test system of assay [1] is Papaver rhoeas. Put plainly: Greenhouse trial, post-emergence: PAPRH. The method, then:
(§1) The test plants have been seeded, separately for each species, in plastic containers in sandy loamy soil containing 5% organic matter.
(§2) For the post emergence treatment, the plants were first grown to the 2 leaf station (GS 12). Here, the herbicidal compositions were suspended or emulsified in water as distribution medium and sprayed using finely distributing nozzels.
(§3) The plants have been cultivated due to there individual requirements at 10-25° C. and 20-35° C. The plants were irrigated due to there necessity. […]
(§4) The evaluation for the damage on undesired weeds caused by the chemical compositions was carried out using a scale from 0 to 100%, compared to the untreated control plants. Here, 0 means no damage and 100 means complete destruction of the plants.
(§5) Calculation of expected activity of binary mixtures was done by using the Colby-Formula according to Example 1.

The test system of assay [2] is Centauria cyanus. Put plainly: Greenhouse trial, post-emergence: CENCY. The conditions noted are these: post-emergence; for % activity 28 DAT: CENCY. The method, then: as §1, §2, §3, §4, §5
Assay [3] concerns Stellaria media. Put plainly: Field trial Example 2, combined application: STEME. The settings on record: Metazachlor 500 g ai/ha solo, 28 DAT. The procedure:
(§6) Aminiopyralid was used as commercial aquaeous solution having an active ingredient concentration of 240 g/l (Milestone™). Metazachlor was used as a commercial suspension concentrate having an active ingredient concentration of 500 g/l (Butisan S®).
as §4
(§7) The value E, which is to be expected if the activity of the individual compounds is just additive, was calculated using the method of S. R. Colby (1967) “Calculating synergistic and antagonistic responses of herbicide combinations”, Weeds 15, p. 22 ff.
(§8) The performance of aminopyralid, applied as an alone treatment at […] and 15 g ai/ha, and the performance of metazachlor, applied as an alone treatment at 375 and 500 g ai/ha, as well as the mixtures of the both compounds have been assessed in winter oilseed rape field trials. The trials have been conducted in Germany at two locations.
(§9) Post emergence treatment was applied by means of fine distributed nozzels at the growth stage (GS/BBCH 11/12).

Assay [4] concerns Anthemis arvensis. Put plainly: Field trial Example 2, combined application: ANTAR. The method, then: as §6, §4, §7, §8, §9
Assay [5] concerns Lamium purpureum. Put plainly: Greenhouse trial, post-emergence: LAMPU. The settings on record: for % activity 28 DAT: LAMPU. The method, then:
as §1, §2, §3, §4, §5

For assay [6], the system named is Centaurea cyanus. The experiment in a line: Field trial Example 2, combined application: CENCY. The settings on record: Metazachlor 375 g ai/ha solo, 78 DAT. The procedure:
as §6, §4, §7, §8, §9

Assay [7] has as its system Mercurialis annua. Put plainly: Greenhouse trial, post-emergence: MERAN. The settings on record: for % activity 28 DAT: MERAN. The method, then:
as §1, §2, §3, §4, §5

The subject of assay [8] is Alopecurus myosuroides. The experiment in a line: Field trial Example 2, combined application: ALOMY. The conditions noted are these: Metazachlor 500 g ai/ha solo, 28 DAT. The method, then: as §6, §4, §7, §8, §9
Assay [9] deals with Matricaria inodora. Put plainly: Field trial Example 2, combined application: MATIN. The procedure: as §6, §4, §7, §8, §9
For assay [10], the system named is Capsella bursa-pasturis. The experiment in a line: Greenhouse trial, post-emergence: CAPBP. The conditions noted are these: post-emergence (Table 10). The procedure:
as §1, §2, §3, §4, §5

In assay [11] the test system is Matricaria chamomilla. Put plainly: Greenhouse trial, post-emergence: MATCH. The settings on record: solo, 187 g ai/ha, greenhouse. The procedure: as §1, §2
The plants have been cultivated due to there individual requirements at 10-25° C. and 20-35° C. The plants were irrigated due to there necessity.
In the following experiments, the herbicidal activity for the individual herbicide compounds (solo and mixture applications), the herbicidal succession was assessed 14 days after treatment (DAT).
as §4, §5
E=(X+Y+Z)−(X*Y+X*Z+Y*Z/100)+(X*Y*Z/1000)
Tables 6 to 10 relate to the herbicidal activity, in greenhouse trials, of the individual actives and the combination in post-emergence application 14 DAT.

In assay [12] the test system is Papaver rhoeas. The experiment in a line: Field trial Example 2, combined application: PAPRH. The procedure: as §6, §4, §7, §8, §9
Assay [13] has as its system Stellaria media. The experiment in a line: Greenhouse trial, post-emergence: STEME. The settings on record: flufenacet 60 g ai/ha solo, post-emergence. The method, then:
as §1, §2, §3, §4, §5

The mark [14] stands for this setting: metazachlor 375 g ai/ha solo, post-emergence (Table 10).
[15] abbreviates: Metazachlor 375 g ai/ha solo, 29 DAT.
[16] abbreviates: Metazachlor 500 g ai/ha solo, 29 DAT.
Setting [17] is: metazachlor 187 g ai/ha solo, post-emergence (Table 10).
[18] abbreviates: Metazachlor 375 g ai/ha solo, 28 DAT.
Setting [19] is: pethoxamid 600 g ai/ha solo, post-emergence.
Where [20] appears, read: clopyralid 120 g ai/ha solo, post-emergence (Table 10).
Where [21] appears, read: clopyralid 60 g ai/ha solo, post-emergence (Table 10).

Broadly, the inhibition is how much of the control response was suppressed. For the compound `Cc1cccc(C)c1N(Cn1cccn1)C(=O)CCl` [metazachlor], the “% activity 28 DAT” value in assay [1] (setting [14]) stood at 30%; in [5] (setting [17]), 75%; in assay [5] (setting [14]) it was 75%; in assay [7] (setting [17]), 15%; in [10] (metazachlor 375 g ai/ha solo), 25%. The inhibition at 187 g/ha in assay [2] (672 h, solo, 187 g ai/ha, greenhouse, 28 DAT) was determined as 20%; in assay [5] (Lamium purpureum, 672 h, solo, 187 g ai/ha, post-emergence, greenhouse, 28 DAT), 75%; in assay [7] (Mercurialis annua, 672 h, solo, 187 g ai/ha, post-emergence, greenhouse, 28 DAT), 15%; in assay [11], 10%. Moreover, the “% activity” value in assay [3] worked out at 88%; in assay [4] (setting [15]), 40%; in assay [4] (setting [16]) it was 57%; in assay [4] (Metazachlor 500 g ai/ha solo, 78 DAT), 60%; in assay [6], 32%; in assay [8] it was 82%. Also, the “% activity” value in assay [9] (setting [18]) is 42%; in assay [9] (setting [15]) it was 88%; in assay [9] (Metazachlor 500 g ai/ha solo, 28 DAT) it was 67%; in assay [12] (setting [18]) it was 50%; in assay [12] (setting [15]), 55%; in [12] (Metazachlor 375 g ai/ha solo, 72 DAT) it was 53%. Further, the “% activity” value is 55% in [12] (Metazachlor 375 g ai/ha solo, 78 DAT) and 75% in [12] (setting [16]).
For `CCOCCN(C(=O)CCl)C(=C(C)C)c1ccccc1` [pethoxamid], the “% activity 28 DAT” value worked out at 25% in assay [1] (setting [19]); 0% in assay [2] (pethoxamid 150 g ai/ha solo); 25% in assay [2] (pethoxamid 300 g ai/ha solo); 30% in [2] (pethoxamid 600 g ai/ha solo); 0% in [7] (pethoxamid 150 g ai/ha solo, post-emergence); 0% in assay [7] (pethoxamid 300 g ai/ha solo, post-emergence). Besides, in assay [7] (setting [19]), the “% activity 28 DAT” value is given as 10%.
With `COC[C@H](C)N(C(=O)CCl)c1c(C)csc1C` [DMTA-P, Dimethenamid-P], the “% activity 28 DAT” value in [2] (DMTA-P 125 g ai/ha solo) is 20%; in assay [7] (DMTA-P 63 g ai/ha solo, post-emergence) it was 15%; in [7] (DMTA-P 125 g ai/ha solo, post-emergence), 25%.
For the compound `CC(C)N(C(=O)COc1nnc(C(F)(F)F)s1)c1ccc(F)cc1` [flufenacet], the “% activity 28 DAT” value in [2] (flufenacet 60 g ai/ha solo) is reported as 0%; in assay [2] (flufenacet 120 g ai/ha solo), 20%; in [5] (flufenacet 60 g ai/ha solo, post-emergence), 60%; in assay [5] (flufenacet 120 g ai/ha solo, post-emergence), 60%; in assay [13] it was 0%.
`O=C(O)c1nc(Cl)ccc1Cl` [clopyralid]: the “% activity 28 DAT” value in assay [1] (setting [20]) is listed as 20%; in [5] (setting [21]), 15%; in assay [5] (setting [20]), 15%; in assay [7] (setting [21]) it was 15%; in assay [10] (clopyralid 120 g ai/ha solo), 10%.
